Results taken from US8691528B2, “Cell penetrating peptide” (Mitsubishi Tanabe Pharma Corporation, priority 2005, dated 2014).
Entries after “also recorded” stand apart in the source; their conditions may differ.

Columns and labels:
Format in all cases: cell-based
HeLa cells = experiment: Confocal microscopic analysis of intracellular translocation of synthetic peptides in HeLa cells; settings: confocal microscopic analysis
Procedure: (§1) Three kinds of cells were used for incorporating the peptides: CHO cells (ATCC NO. CCL-61), HeLa cells, and Jurkat cells. 10^4 CHO cells and HeLa cells and 10^5 Jurkat cells were separately inoculated to a 96-well plate, and cultured for 2 or 3 days. Subsequently, when the cells became confluent, each peptide solution was added to each type of cell, and the cells were incubated for 1 hour. After each type of cell was washed with PBS three times, 100 μL of 0.25% trypsin-1 mM EDTA solution was added, and trypsinization was performed at room temperature for 5 minutes. After 400 μL of PBS (10% FCS) was added to neutralize the trypsin, the cells were washed with 1 mL of HBSS (Hanks' Balanced Salt Solution/produced by Invitrogen) three times. After the washing, the cells were suspended in 50 μL of HBSS and analyzed using a confocal microscope. Measurements and analysis were performed using a confocal differential interference laser microscope system (Bio-Rad, Radience2100/Green He-Ne, 488 nm, microscope: Nikon, ECLIPSE E600).
In HeLa cells as with CHO cells, intracellular translocation experiments of synthetic peptides of modified PTD sequences were performed by confocal microscopic analysis.

Jurkat cells = experiment: Confocal microscopic analysis of intracellular translocation of synthetic peptides in Jurkat cells
Procedure: as §1
In Jurkat cells as well, intracellular translocation experiments of synthetic peptides of modified PTD sequences were performed by confocal microscopic analysis.

CHO cells = experiment: Test of translocation of fluorescence-labeled peptides into CHO cells (FACS and confocal microscopic analysis); settings: for contribution of the alanine-substituted amino acid to the intracellular translocation: comprehensive alanine substitution on the basis of KSH1-1
Procedure: Each peptide solution, adjusted to 1 mM, was diluted with a medium to three levels, 100 μM, 50 μM, and 25 μM, and added to cells. Three kinds of cells were used: CHO cells, HeLa cells, and Jurkat cells. After each peptide solution was added, the cells were incubated for 1 hour. After the cells were washed with PBS three times, 100 μL of 0.25% trypsin-1 mM EDTA solution was added, and trypsinization was performed at room temperature for 5 minutes. After 400 μL of PBS (10% FCS) was added to stop the trypsinization, the cells were washed with 1 mL of HBSS three times. After the washing, the cells were suspended in 500 μL of PBS (10% FCS) and subjected to flowcytometry (hereinafter, FACS) analysis using FACS Calibur (Becton Dickinson).
Each peptide was synthesized, fluorescently labeled, purified and dissolved in the same manner as Example 1-2, a test of translocation into CHO cells was performed, and an evaluation was performed by confocal microscopic analysis and FACS. FACS analysis was performed in the same manner as Example 1-3. For the KSH1 peptide and modified PTD sequences, i.e., KSH1-1 to KSH1-9 peptides (SEQ ID NOS:1 to 9 in the sequence listing), fluorescence intensities determined by FACS analysis are shown in FIG. 6. The peptide addition concentrations were 50 μM, 25 μM, 12.5 μM and 6.5 μM.
To determine which amino acids are important to the intracellular translocation, comprehensive alanine substitution was performed on the basis of KSH1-1 to design KSH1-11 (SEQ ID NO:11 in the sequence listing) to KSH1-23 (SEQ ID NO:22 in the sequence listing) and KSH1-35 (SEQ ID NO:32 in the sequence listing) (FIG. 7). Each peptide was synthesized, fluorescently labeled, purified and dissolved in the same manner as Example 1-2, a test of translocation into CHO cells was performed, and an evaluation was performed by confocal microscopic analysis and FACS. FACS analysis was performed in the same manner as Example 1-3. For KSH1 and modified PTD sequences, i.e., KSH11-11 to 23 and KSH1-35, fluorescence intensities determined by FACS analysis are shown in FIG. 8. The peptide addition concentrations were 50 μM, 25 μM, 12.5 μM and 6.5 μM.
(§2) Each peptide was synthesized, fluorescently labeled, purified and dissolved in the same manner as Example 1-2, a test of translocation into CHO cells was performed, and an evaluation was performed by confocal microscopic analysis and FACS analysis. FACS analysis was performed in the same manner as Example 1-3. For KSH1 and modified PTD sequences, i.e., KSH11-24 to 1-26 and KSH1-28 to 1-30, fluorescence intensities determined by FACS analysis are shown in FIG. 10. The peptide addition concentrations were 50 μM, 25 μM, 12.5 μM and 6.5 μM.
as §2, with “KSH1-27, KSH1-33, KSH1-34” for “KSH11-24 to 1-26”, “KSH1-36,” for “KSH1-28 to 1-30,”, “12.” for “10.”
Each peptide was synthesized, fluorescently labeled, purified and dissolved in the same manner as Example 1-2, and an intracellular translocation test in CHO cells was performed by FACS analysis. Used for positive control were a PTD sequence derived from HIV TAT ([…] in the sequence listing) and the KSH1 peptide; used for negative control was a peptide sequence lacking intracellular transferability (SEQ ID NO:57 in the sequence listing).

[1] = system: CHO cells, HeLa cells, and Jurkat cells; experiment: Confocal microscopic analysis of intracellular translocation of fluorescence-labeled peptides; settings: for intracellular translocation compared with KSH2: FITC-labeled peptide; for capability of intracellular translocation compared with KSH2: FITC-labeled peptides in CHO, HeLa, and Jurkat cells
Source text: With the PTD derived from HIV TAT protein shown by SEQ ID NO:50 in the sequence listing as the positive control (in FIG. 1 to FIG. 3, denoted by “Positive” or “TAT”), and a mutant of the TAT-derived PTD shown by SEQ ID NO:51 in the sequence listing, reported by Ulo Langel et al. (Cell-Penetrating Peptides: Processes and Applications, Series: Pharmacology and Toxicology: Basic and Clinical Aspects Volume:3, 2002), as the negative control (in FIG. 1, denoted by “Negative”), the peptides of the 11 sequences selected in Example 1-1 were evaluated.
The peptides of the 11 sequences selected in Example 1-1 were synthesized by the solid phase method, and fluorescently labeled by coupling 5,6-Carboxyfluorescein to the N-terminus of each peptide. Furthermore, the peptides were purified by HPLC to obtain a purity of 70% or more. Subsequently, each fluorescently labeled peptide was dissolved in 10% Dimethyl Sulfoxide (DMSO) to obtain 1 mM (hereinafter referred to as peptide solution).
as §1
Of the novel PTD sequences found in Example 5, the KSH2 peptide is highly capable of translocating eGFP into cells; an attempt was made to modify the KSH2 peptide. The KSH2-1 to KSH2-4 peptides (SEQ ID NOS:44 to 47 in the sequence listing) were synthesized, fluorescently labeled, purified and dissolved in the same manner as Example 1-2, a test of translocation into CHO cells was performed, and confocal microscopic analysis was performed.
First, two cases were examined: two cysteines were substituted with alanine (KSH2-1) or with tryptophan (KSH2-2). FITC-labeled peptides were synthesized, and their intracellular translocation efficiencies were examined using CHO, HeLa, and Jurkat cells (FIG. 21, the peptide addition concentration was 50 μM, 25 μM or 12.5 μM).

[2] = 50 μM, 25 μM, 12.5 μM and 6.5 μM

Row | Substance | intracellular translocation in HeLa cells (modified peptides with better translocation) (HeLa cells) | intracellular translocation in Jurkat cells as compared to that of SEQ ID NO:37 (Jurkat cells) | intracellular translocation compared with KSH1 (in words) (CHO cells; [2]) | also measured
1 | KSH1-8: tryptophan cluster form with lysine substituted with arginine (RLWMRWYSPWTRRYG; Designed peptide to act as PTD(Protein Transduction Domain)) | better intracellular translocation | better intracellular translocation | clearly accentuated intracellular translocation | intracellular translocation (in words) (CHO cells; at 25 μM or less): accentuated; intracellular translocation (in words) (CHO cells; at 50 μM): decreased
2 | KSH1-9: modified KSH1 with the number of tryptophans increased to 4 (RLWMRWYSPWTRRWG; Designed peptide to act as PTD(Protein Transduction Domain)) | better intracellular translocation | better intracellular translocation | the same tendency as KSH1-8; also recorded: clearly accentuated intracellular translocation | 
3 | KSH1-12: alanine substitution form of KSH1-1 (RAWMRWYSPTTRRYG; Designed peptide to act as PTD(Protein Transduction Domain)) |  | better intracellular translocation |  | contribution of the alanine-substituted amino acid to the intracellular translocation (CHO cells): minor contribution
4 | KSH1-14: alanine substitution form of KSH1-1 (RLWARWYSPTTRRYG; Designed peptide to act as PTD(Protein Transduction Domain)) |  | better intracellular translocation |  | contribution of the alanine-substituted amino acid to the intracellular translocation (CHO cells): minor contribution
5 | KSH1-16: alanine substitution form of KSH1-1 (RLWMRAYSPTTRRYG; Designed peptide to act as PTD(Protein Transduction Domain)) |  |  |  | intracellular translocation in HeLa cells compared with CHO cells (HeLa cells): slightly higher
6 | KSH1-18: alanine substitution form of KSH1-1 (8th serine) (RLWMRWYAPTTRRYG; Designed peptide to act as PTD(Protein Transduction Domain)) | better intracellular translocation | better intracellular translocation | clearly accentuated intracellular translocation | 
7 | KSH1-20: alanine substitution form of KSH1-1 (RLWMRWYSPATRRYG; Designed peptide to act as PTD(Protein Transduction Domain)) | better intracellular translocation | better intracellular translocation |  | contribution of the alanine-substituted amino acid to the intracellular translocation (CHO cells): minor contribution
8 | KSH1-21: alanine substitution form of KSH1-1 (RLWMRWYSPTARRYG; Designed peptide to act as PTD(Protein Transduction Domain)) |  | better intracellular translocation |  | 
9 | KSH1-33: 13th arginine substituted with alanine and 10th threonine substituted with arginine (RLWMRWYSPRTRAYG; Designed peptide to act as PTD(Protein Transduction Domain)) | better intracellular translocation | better intracellular translocation | clearly accentuated intracellular translocation | intracellular translocation compared with KSH1-1 (in words) (CHO cells; [2]): nearly equivalent or more than KSH1-1
10 | KSH2-1: KSH2 with two cysteines substituted with alanine (WKARRQAFRVLHHWN; Designed peptide to act as PTD(Protein Transduction Domain)) |  |  |  | intracellular translocation compared with KSH2 ([1]; 25 μM): remarkably decreased intracellular translocation; intracellular translocation compared with KSH2 ([1]; 50 μM): higher intracellular translocation than KSH2
11 | KSH2-2: KSH2 with two cysteines substituted with tryptophan (WKWRRQWFRVLHHWN; Designed peptide to act as PTD(Protein Transduction Domain)) |  |  |  | intracellular translocation compared with KSH2 ([1]; 12.5 μM): higher intracellular translocation efficiency than KSH2; intracellular translocation compared with KSH2 ([1]; 25 μM): higher intracellular translocation efficiency than KSH2; intracellular translocation compared with KSH2 ([1]; 50 μM): higher intracellular translocation than KSH2
12 | KSH2-3: KSH2 with one of the two cysteines substituted with alanine (WKARRQCFRVLHHWN; Designed peptide to act as PTD(Protein Transduction Domain)) |  |  |  | capability of intracellular translocation compared with KSH2 [1]: accentuated
13 | KSH2-4: KSH2 with one of the two cysteines substituted with alanine (WKCRRQAFRVLHHWN; Designed peptide to act as PTD(Protein Transduction Domain)) |  |  |  | capability of intracellular translocation compared with KSH2 [1]: accentuated
